In patent publication US8435978B2, “Substituted sulfonamide compounds” (Gruenenthal GmbH, priority 2006, dated 2013):
Structures can show the parent of a compound that is named as a salt.

Legend:
[1] = biological target: T1, B1R receptor of the rat (Rattus norvegicus, UniProt P97583); assay: Functional study on the bradykinin receptor 1 (B1R), FLIPR Ca2+ assay, rB1R cells; assay type: cell-based; details: agonist Des-Arg9-bradykinin 100 nM, % inhibition compared with the maximum achievable inhibition; for inhibition at 10 µM: CHO-K1, test substance 10 μM, read-out: B1R Antagonism, rat [10 μM] % Inhibition
T1 construct: host or cells: CHO K1 cells (Chinese hamster ovary), stably transfected
T1 sequence (P97583 1-337): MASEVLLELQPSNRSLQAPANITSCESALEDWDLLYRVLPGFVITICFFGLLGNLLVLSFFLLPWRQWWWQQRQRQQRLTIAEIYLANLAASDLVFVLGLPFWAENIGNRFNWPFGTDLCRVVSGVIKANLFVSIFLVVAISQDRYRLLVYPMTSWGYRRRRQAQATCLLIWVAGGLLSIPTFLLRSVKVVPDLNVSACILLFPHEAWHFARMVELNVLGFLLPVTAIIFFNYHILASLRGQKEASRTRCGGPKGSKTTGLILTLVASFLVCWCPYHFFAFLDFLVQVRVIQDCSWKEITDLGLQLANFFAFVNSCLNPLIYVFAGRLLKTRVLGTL
Procedure: (§1) The agonistic or antagonistic action of substances can be quantified on the bradykinin receptor 1 (B1R) of the species human and rat with ectopically expressing cell lines (CHO K1 cells) and with the aid of a Ca^2+-sensitive dye (Fluo-4) using a fluorescent imaging plate reader (FLIPR). The indication in % activation is based on the Ca^2+ signal after addition of Lys-Des-Arg^9-bradykinin (0.5 nM) or Des-Arg^9-bradykinin (100 nM). Antagonists result in a suppression of the Ca^2+ influx following administration of the agonist. The % inhibition in comparison with the maximum achievable inhibition is indicated.
(§2) The agonistic or antagonistic action of substances can be determined on the bradykinin receptor 1 (B1R) of the species human and rat using the following assay. According to this assay, the Ca^2+ influx through the channel is quantified with the aid of a Ca^2+-sensitive dye (type Fluo-4, Molecular Probes Europe BV, Leiden, Netherlands) using a Fluorescent Imaging Plate Reader (FLIPR, Molecular Devices, Sunnyvale, USA).
(§3) Chinese hamster ovary cells (CHO K1 cells) which have been stably transfected with the human B1R gene (hB1R cells, Euroscreen s.a., Gosselies, Belgium) or with the B1R gene of the rat (rB1R cells, Axxam, Milan, Italy) are used. For functional studies, the cells are plated out on black 96-well plates having a clear base (BD Biosciences, Heidelberg, Germany) in a density of 20,000-25,000 cells/well. The cells are incubated overnight at 37° C. and with 5% CO2 in culture medium (hB1R cells: Nutrient Mixture Ham's F12, Gibco Invitrogen GmbH, Karlsruhe, Germany; rB1R cells: D-MEM/F12, Gibco Invitrogen GmbH, Karlsruhe, Germany), with 10 vol. % FBS (fetal bovine serum, Gibco Invitrogen GmbH, Karlsruhe, Germany). On the following day, the cells are loaded for 60 minutes at 37° C. with 2.13 μM Fluo-4 (Molecular Probes Europe BV, Leiden, Netherlands) in HBSS buffer (Hank's buffered saline solution, Gibco Invitrogen GmbH, Karlsruhe, Germany) […] (Sigma-Aldrich, Taufkirchen, Germany) and 10 mM HEPES (Sigma-Aldrich, Taufkirchen, Germany). The plates are then washed twice with HBSS buffer, and HBSS buffer additionally containing 0.1% BSA (bovine serum albumin; Sigma-Aldrich, Taufkirchen, Germany), 5.6 mM glucose and 0.05% gelatin (Merck KGaA, Darmstadt, Germany) is added to the plates. After incubation for a further 20 minutes at room temperature, the plates are inserted into the FLIPR for Ca^2+ measurement. The Ca^2+-dependent fluorescence is measured before and after the addition of substances (λex=488 nm, λem=540 nm). Quantification is carried out by measuring the highest fluorescence intensity (FC, fluorescence counts) over time.
(§4) The FLIPR protocol consists of 2 substance additions. Test substances (10 μM) are first pipetted onto the cells and the Ca^2+ influx is compared with the control (hB1R: Lys-Des-Arg^9-bradykinin 0.5 nM; rB1R: Des-Arg^9-bradykinin 100 nM). This gives the activation in %, based on the Ca^2+ signal after addition of Lys-Des-Arg^9-bradykinin (0.5 nM) or Des-Arg^9-bradykinin (100 nM).
(§5) After 10 minutes' incubation, 0.5 nM Lys-Des-Arg^9-bradykinin (hB1R) or 100 nM Des-Arg^9-bradykinin (rB1R) are applied, and the influx of Ca^2+ is likewise determined. Antagonists lead to suppression of the Ca^2+ influx. The % inhibition compared with the maximum achievable inhibition is calculated.

[2] = biological target: T2, human B1R receptor (Homo sapiens, UniProt P46663); assay: Functional study on the bradykinin receptor 1 (B1R), FLIPR Ca2+ assay, hB1R cells; assay type: cell-based; details: agonist Lys-Des-Arg9-bradykinin 0.5 nM, % inhibition compared with the maximum achievable inhibition; for inhibition at 10 µM: CHO-K1, test substance 10 μM, read-out: B1R Antagonism, human [10 μM] % Inhibition
T2 construct: host or cells: CHO K1 cells (Chinese hamster ovary), stably transfected
T2 sequence (P46663 1-353): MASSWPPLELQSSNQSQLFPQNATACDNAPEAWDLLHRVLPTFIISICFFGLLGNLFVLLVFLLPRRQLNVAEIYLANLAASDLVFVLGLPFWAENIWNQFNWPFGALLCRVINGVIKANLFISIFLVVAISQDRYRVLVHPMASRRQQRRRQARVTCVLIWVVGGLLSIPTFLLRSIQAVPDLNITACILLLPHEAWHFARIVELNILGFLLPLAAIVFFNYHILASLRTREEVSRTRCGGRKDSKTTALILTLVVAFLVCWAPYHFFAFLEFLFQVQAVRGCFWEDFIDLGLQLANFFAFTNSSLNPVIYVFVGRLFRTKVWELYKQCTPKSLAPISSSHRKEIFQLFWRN
Procedure: as §1, §2, §3, §4, §5

Row | inhibition at 10 µM [1] | inhibition at 10 µM [2] | B1R Antagonism, rat [10 μM] % Inhibition ([1]; test substance 10 μM, rB1R CHO K1 cells) | B1R Antagonism, human [10 μM] % Inhibition ([2]; test substance 10 μM, hB1R CHO K1 cells) | SMILES
1 | 104% | 101% | – | – | COc1cc(C)c(S(=O)(=O)N2CCCCC2COCC(=O)Nc2cccc(CN3CCCCC3)c2)c(C)c1 (stereo not shown) [Example 418, 2-((1-(4-methoxy-2,6-dimethylphenylsulfonyl)piperidin-2-yl)methoxy)-N-(3-(piperidin-1-ylmethyl)phenyl)acetamide]
2 | 103% | 103% | – | – | CN(C)CCCN1CCN(C(=O)COCC2CCCN2S(=O)(=O)c2c(Cl)cccc2Cl)CC1 (stereo not shown) [Example 566, 2-((1-(2,6-dichlorophenylsulfonyl)pyrrolidin-2-yl)methoxy)-1-(4-(3-(dimethylamino)propyl)piperazin-1-yl)ethanone]
3 | – | – | 102.52% | 104.82% | CN1CCC(N2CCN(C(=O)COCC3CCCCN3S(=O)(=O)c3c(Cl)cccc3Cl)CC2)CC1 (stereo not shown) [Example 565, 2-((1-(2,6-dichlorophenylsulfonyl)piperidin-2-yl)methoxy)-1-(4-(1-methylpiperidin-4-yl)piperazin-1-yl)ethanone]
4 | 99% | – | – | – | CN1CCN(C2CCN(C(=O)COCC3CCCCN3S(=O)(=O)c3csc4ccccc34)CC2)CC1 (stereo not shown) [Example 572, 2-((1-(benzo[b]thiophen-3-ylsulfonyl)piperidin-2-yl)methoxy)-1-(4-(4-methylpiperazin-1-yl)piperidin-1-yl)ethanone]
5 | – | 90% | – | – | CN(C(=O)COCC1CCCCN1S(=O)(=O)c1c(Cl)cc(C(F)(F)F)cc1Cl)[C@H]1CCN(Cc2ccccc2)C1 (stereo partly drawn) [Example 574, N—((S)-1-benzylpyrrolidin-3-yl)-2-((1-(2,6-dichloro-4-(trifluoromethyl)phenylsulfonyl)piperidin-2-yl)methoxy)-N-methylacetamide]
6 | 101% | – | – | – | CN1CCC(CN2CCN(C(=O)COCC3CCCCN3S(=O)(=O)c3csc4ccccc34)CC2)CC1 (stereo not shown) [Example 573, 2-((1-(benzo[b]thiophen-3-ylsulfonyl)piperidin-2-yl)methoxy)-1-(4-((1-methylpiperidin-4-yl)methyl)piperazin-1-yl)ethanone]

The remaining lines, values behind:

Row | SMILES | inhibition at 10 µM [1] | inhibition at 10 µM [2] | B1R Antagonism, rat [10 μM] % Inhibition ([1]; test substance 10 μM, rB1R CHO K1 cells) | B1R Antagonism, human [10 μM] % Inhibition ([2]; test substance 10 μM, hB1R CHO K1 cells)
7 | Cc1ccc(Cl)cc1N1CCN(C(=O)COCC2CCCCN2S(=O)(=O)c2c(Cl)cccc2Cl)CC1 (stereo not shown) [Example 321, 1-(4-(5-chloro-2-methylphenyl)piperazin-1-yl)-2-((1-(2,6-dichlorophenylsulfonyl)piperidin-2-yl)methoxy)ethanone] | 100% | 41.2% | – | –
8 | CN1CCC(N2CCN(C(=O)COCC3CCCCN3S(=O)(=O)c3ccc4c(c3)CCCC4)CC2)CC1 (stereo not shown) [Example 179, 1-(4-(1-methylpiperidin-4-yl)piperazin-1-yl)-2-((1-(5,6,7,8-tetrahydronaphthalen-2-ylsulfonyl)piperidin-2-yl)methoxy)ethanone dihydrochloride] | 100% | 104% | – | –
9 | O=C(COCC1CCCCN1S(=O)(=O)c1ccc(Br)cc1)N1CCN(c2ccncc2)CC1 (stereo not shown) [Example 126, 2-((1-(4-bromophenylsulfonyl)piperidin-2-yl)methoxy)-1-(4-(pyridin-4-yl)piperazin-1-yl)ethanone] | 81.1% | 46.4% | – | –
10 | O=C(COCC1CCCN1S(=O)(=O)c1ccc(Cl)c(Cl)c1)N1CCN(c2ccccc2)CC1 (stereo not shown) [Example 89, 2-[1-(3,4-dichloro-phenylsulfonyl)-pyrrolidin-2-ylmethoxy]-1-(4-phenyl-piperazin-1-yl)-ethanone] | 0% | 41.3% | – | –
11 | COc1cc(C)c(S(=O)(=O)N2CCCC2COCC(=O)N2CCN(c3ccc(F)cc3)CC2)c(C)c1 (stereo not shown) [Example 307, 1-(4-(4-fluorophenyl)piperazin-1-yl)-2-((1-(4-methoxy-2,6-dimethylphenylsulfonyl)pyrrolidin-2-yl)methoxy)ethanone] | 98.4% | 105% | – | –
12 | COc1cc(C)c(S(=O)(=O)N2CCCCC2COCC(=O)Nc2cccnc2N2CCOCC2)c(C)c1 (stereo not shown) [Example 395, 2-((1-(4-methoxy-2,6-dimethylphenylsulfonyl)piperidin-2-yl)methoxy)-N-(2-morpholinopyridin-3-yl)acetamide] | 100% | 12.6% | – | –
13 | COc1cc(C)c(S(=O)(=O)N2CCCCC2COCC(=O)NCCCn2ccnc2)c(C)c1 (stereo not shown) [Example 366, N-(3-(1H-imidazol-1-yl)propyl)-2-((1-(4-methoxy-2,6-dimethylphenylsulfonyl)piperidin-2-yl)methoxy)acetamide] | 99% | 14.8% | – | –
14 | COc1ccc(S(=O)(=O)N2CCCCC2COCC(=O)N2CCC(CCN3CCCCC3)CC2)cc1 (stereo not shown) [Example 52, 2-((1-(4-methoxyphenylsulfonyl)piperidin-2-yl)methoxy)-1-(4-(2-(piperidin-1-yl)-ethyl)piperidin-1-yl)ethanone] | 92.8% | 65% | – | –
15 | O=C(COCC1CCCCN1S(=O)(=O)c1c(Cl)cccc1Cl)N1CCN(c2ccc(F)cc2)CC1 (stereo not shown) [Example 318, 2-((1-(2,6-dichlorophenylsulfonyl)piperidin-2-yl)methoxy)-1-(4-(4-fluorophenyl)piperazin-1-yl)ethanone] | 102% | 102% | – | –
16 | O=C(COCC1CCCCN1S(=O)(=O)c1c(Cl)cccc1Cl)NCc1ccc(CN2CCCC2)cc1 (stereo not shown) [Example 313, 2-((1-(2,6-dichlorophenylsulfonyl)piperidin-2-yl)methoxy)-N-(4-(pyrrolidin-1-ylmethyl)benzyl)acetamide] | 103% | 103% | – | –
17 | CN(C(=O)COCC1CCCCN1S(=O)(=O)c1ccccc1C(F)(F)F)[C@H]1CCN(Cc2ccccc2)C1 (stereo partly drawn) [Example 218, N—((S)-1-benzylpyrrolidin-3-yl)-N-methyl-2-((1-(2-(trifluoromethyl)phenylsulfonyl)piperidin-2-yl)methoxy)acetamide] | – | 100% | – | –
18 | COc1ccc(S(=O)(=O)N2CCCCC2CCOCC(=O)N2CCN(CCc3ccccc3)CC2)cc1 (stereo not shown) [Example 91, 2-(2-(1-(4-methoxyphenylsulfonyl)piperidin-2-yl)ethoxy)-1-(4-phenethylpiperazin-1-yl)ethanone] | – | 48.8% | – | –
